Values after ≈ are worked out from the molar mass of the structure shown.
Columns and labels:
Type in all cases: functional
Settings in all cases: read-out: ED50 (the source's name)
P388 = assay: Cytotoxicity against mouse P388 cells
KB = assay: Cytotoxicity against human KB cells
RPMI-7951 = assay: Cytotoxicity against human RPMI7951 cells
HCT-8 = assay: Cytotoxicity against human HCT8 cells

Work on `CC(C)(O)[C@@H]1CC[C@@](C)([C@H]2CC[C@]3(C)[C@@H]2[C@H](O)C[C@@H]2[C@@]4(C)[C@H](O)C[C@@H](O)C(C)(C)[C@@H]4CC[C@]23C)O1` [POLACANDRIN] yielded an EC50 (P388) of 0.9 mg/L (≈ 1.83 µM), an EC50 (KB) of 0.6 mg/L (≈ 1.22 µM) and an EC50 (RPMI-7951) of 0.62 mg/L (≈ 1.26 µM). It also gave an EC50 (HCT-8) of 6.06 mg/L (≈ 12.3 µM).
